Experimental findings from patent publication US11806350B2, “Prevention and/or treatment of CNS disorders” (ILDONG PHARMACEUTICAL CO., LTD., priority 2020, dated 2023) are described below.

For data set [1], the target named is T1, Human recombinant adenosine A2A receptors (Homo sapiens, UniProt P29274).
T1 construct: expressed in transfected cells; host or cells: HEK-293 cells (membrane preparation)
Put plainly: Human adenosine A2A receptor binding assay ([3H]CGS-21680). To be noted: membranes of HEK-293 cells, 50 nM [3H]CGS-21680, 90 minutes at 25° C.; read-out: hA2A Ki. The procedure: 2.2 Human Adenosine A2A Receptor Binding Assay
Test compound is weighed, dissolved in DMSO to make a stock solution of 10 mM, diluted with DMSO to prepare working solutions, then 100-fold diluted to the indicated concentrations. Human recombinant adenosine A2A receptors expressed in HEK-293 cells were used to prepare membranes in incubation buffer (50 mM Tris-HCl, pH 7.4, 10 mM MgCl2, 1 mM EDTA, 2 U/ml Adenosine Deaminase). Test compound or vehicle (2.2 μL) was added in 200 μL of membranes and incubated with 20 μL of 50 nM [^3H] […] Non-specific binding was estimated in the presence of 50 μM NECA (5′-N-ethylcarboxamidoadenosine). The incubation was stopped by vacuum filtration onto 0.3% PEI (polyethylenimine) presoaked GF/B filters using a harvester followed by four washes with ice-cold 50 mM Tris-HCl, pH 7.4, and the radioactivity on GF/B filtermats counted in a scintillation counter (PerkinElmer TOPCOUNT™) to determine [^3H] […] Final concentration of vehicle DMSO is 1%.
(§1) Data is fitted using the non-linear curve fitting routines in Meth-IQ software (ID Business Solutions Ltd., UK). IC50 is converted to Ki by Cheng-Prusoff equation: Ki=IC50/(1+[L]/KD) where [L] is concentration of radiolabeled ligand used in the assay.

The subject of data set [2] is unilateral 6-hydroxydopamine (6-OHDA) lesion animal model of Parkinson's Disease. Put plainly: Axial, limb and orolingual abnormal involuntary movement scores (ALO AIMs) in 6-OHDA lesioned, L-DOPA primed rats. The class given is in vivo, Wistar Han rats. Conditions: after 4 days L-DOPA priming wash out; per oral (1-30 mg/kg) or intranasal (0.3-10 mg/kg); FIG. 2B. The protocol: (§2) To generate animal model of Parkinson's Disease (PD), a number of 67 female Wistar Han rats of approximately 9 weeks of age received unilateral 6-hydroxydopamine (6-OHDA) lesion. To induce the 6-OHDA lesion, each of the animals received one injection with 2 μl (4 μg/μl) in the medial forebrain bundle (MFB). 6-OHDA is widely used to lesion the nigrostriatal dopaminergic system as a model of PD.
Three weeks after the injections, cylinder test for the evaluation of locomotor asymmetry was performed to determine the efficacy of the 6-OHDA lesion (4 animals died before testing). Based on the results of the cylinder test, 6-OHDA lesioned animals were further included in the study. In compound standalone testing groups (B+C), animals (n=52) were received L-DOPA (Levodopa or L-3,4-dihydroxyphenylalanine) priming (2 animals died before group allocation). Animals (n=11) not showing symptoms were eliminated without any further administration of test compounds or tissue collection. […]
ALO test was performed on treatment days (4 days after end of L-DOPA priming) with all animals used for the compound stand alone testing. ALO AIMs were scored starting 5 min […] after the vehicle, L-DOPA/Benserazide and IN administration of the test compound, and 2h (+/−5 min) after PO administration of the test compound and every 20 min thereafter for 3 h. […]
ALO AIMs were scored for 1 min, every 20 min for 180 min. […]

For data set [3] the test system is unchanged. Briefly: Cylinder test (forelimb use asymmetry) in 6-OHDA lesioned rats. The class given is in vivo, Wistar Han rats. The procedure: as §2
Three weeks after the injections, cylinder test for the evaluation of locomotor asymmetry was performed to determine the efficacy of the 6-OHDA lesion (4 animals died before testing). Based on the results of the cylinder test, 6-OHDA lesioned animals were further included in the study. In compound standalone testing groups (B+C), animals (n=52) were received L-DOPA (Levodopa or L-3,4-dihydroxyphenylalanine) priming (2 animals died before group allocation). […]
Cylinder test was performed on treatment days (4 days after end of L-DOPA priming) with all animals used for testing. […] Each animal was individually evaluated for 5 minutes. The number of contacts on the cylinder wall with the right paw, left and both paws simultaneously were counted. The results were given in percentage and calculating is done as follows: the test total sum of contacts on the cylinder wall with the right paw, left paw and both totaled 100%, based on this, a percentage value for each finding was calculated (Araujo, 2013).

Data set [4] concerns the target T2, Human recombinant adenosine A1 receptors (Homo sapiens, UniProt P30542).
T2 construct: expressed in transfected cells; host or cells: CHO-K1 cells (membrane preparation)
T2 sequence (P30542 1-326): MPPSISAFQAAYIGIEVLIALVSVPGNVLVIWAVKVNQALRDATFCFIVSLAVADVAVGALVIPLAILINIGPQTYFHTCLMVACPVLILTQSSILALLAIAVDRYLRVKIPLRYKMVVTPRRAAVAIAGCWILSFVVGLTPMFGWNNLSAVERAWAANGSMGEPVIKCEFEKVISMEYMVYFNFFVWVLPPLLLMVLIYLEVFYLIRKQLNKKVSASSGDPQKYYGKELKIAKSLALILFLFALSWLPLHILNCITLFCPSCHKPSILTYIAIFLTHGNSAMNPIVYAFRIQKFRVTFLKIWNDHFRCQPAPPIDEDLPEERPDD
Briefly: Human adenosine A1 receptor binding assay ([3H]DPCPX). Conditions: membranes of CHO-K1 cells, 1 nM [3H]DPCPX, 90 minutes at 25° C.; read-out: hAl Ki. The procedure: 2.1 Human Adenosine A1 Receptor Binding Assay
Test compound is weighed, dissolved in DMSO to make a stock solution of 10 mM, diluted with DMSO to prepare working solutions, then 100-fold diluted to the indicated concentrations. Human recombinant adenosine A1 receptors expressed in CHO-K1 cells were used to prepare membranes in incubation buffer (20 mM HEPES (4-(2-hydroxyethyl)-1-piperazineethanesulfonic acid) pH 7.4, 10 mM MgCl2, 100 mM NaCl). Test compound or vehicle (2.2 μL) was added in 200 μL of membranes and incubated with 20 μL of 1 nM [^3H] DPCPX (8-cyclopentyl-1,3-dipropylxanthine) for 90 minutes at 25° C. Non-specific binding was estimated in the presence of 100 μM R(−)-PIA ((R)—N-(1-methyl-2-phenylethyl)adenosine). The incubation was stopped by vacuum filtration onto 0.3% PEI (polyethylenimine) presoaked GF/B filters using a harvester followed by four washes with ice-cold 50 mM Tris-HCl, pH 7.4, and the radioactivity on GF/B filtermats counted in a scintillation counter (PerkinElmer Topcount™) to determine [^3H] DPCPX specifically bound. Final concentration of vehicle DMSO is 1%.
as §1

T1 sequence (P29274 whole entry): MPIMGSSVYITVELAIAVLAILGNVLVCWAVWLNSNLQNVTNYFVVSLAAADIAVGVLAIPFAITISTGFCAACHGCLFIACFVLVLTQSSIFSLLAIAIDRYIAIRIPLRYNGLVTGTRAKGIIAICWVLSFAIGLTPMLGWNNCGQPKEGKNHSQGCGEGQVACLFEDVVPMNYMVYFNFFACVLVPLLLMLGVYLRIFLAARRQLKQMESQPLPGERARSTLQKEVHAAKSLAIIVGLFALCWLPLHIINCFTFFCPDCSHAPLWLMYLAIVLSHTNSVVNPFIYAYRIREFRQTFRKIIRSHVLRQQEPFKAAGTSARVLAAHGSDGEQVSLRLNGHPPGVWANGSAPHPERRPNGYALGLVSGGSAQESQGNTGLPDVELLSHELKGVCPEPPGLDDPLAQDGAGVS

Consider `N#Cc1cccc(-c2nc(N)nc3c2cnn3Cc2ccc(N)c(C(F)(F)F)c2)c1` [Compound 210, 3-(6-amino-1-(4-amino-3-(trifluoromethyl)benzyl)-1H-pyrazolo[3,4-d]pyrimidine-4-yl)benzonitrile], for which the Ki was below 20 nM in data set [1] and at most 100 nM in data set [4]. In addition, the “L-DOPA/Benserazide induced dyskinesia-like side effects (ALO AIM scores)” value in data set [2] was “did not induce L-DOPA/Benserazide induced dyskinesia-like side effects”. The “contralateral limb usage in cylinder test” value in data set [3] (IN route and PO route, compared to the vehicle treated group, FIGS. 3A, 3B) was “concentration related trend towards increased contralateral limb usage”. Also, the “contralateral limb usage in cylinder test, intranasal compared to PO administration” value in data set [3] (intranasal administration compared to the PO administration group) is “more pronounced concentration related trend”.
With `N#Cc1cccc(-c2nc(N)nc3c2cnn3Cc2c(F)cccc2F)n1` [Compound 231, 6-(6-amino-1-(2,6-difluorobenzyl)-1H-pyrazolo[3,4-d]pyrimidine-4-yl)picolinonitrile], the figures for the Ki in data set [1] and in data set [4] were below 20 nM and 100 to 1000 nM, respectively.
For the compound `N#Cc1ccnc(-c2nc(N)nc3c2cnn3Cc2c(F)cccc2F)c1` [Compound 232, 2-(6-amino-1-(2,6-difluorobenzyl)-1H-pyrazolo[3,4-d]pyrimidine-4-yl)isonicotinonitrile], the inhibition constant Ki in data set [1] was 20 to 200 nM; in data set [4], 100 to 1000 nM.
On the same counts, the results for `N#Cc1cncc(-c2nc(N)nc3c2cnn3Cc2c(F)cccc2F)c1` [Compound 233, 5-(6-amino-1-(2,6-difluorobenzyl)-1H-pyrazolo[3,4-d]pyrimidine-4-yl)nicotinonitrile] are 200 to 1000 nM and 1000 to 10000 nM.
With `N#Cc1cc(-c2nc(N)nc3c2cnn3Cc2c(F)cccc2F)ccn1` [Compound 234, 4-[6-amino-1-[(2,6-difluorophenyl)methyl]pyrazolo[3,4-d]pyrimidine-4-yl]pyridine-2-carbonitrile], the Ki in data set [1] fell in the range of 200 to 1000 nM; in data set [4], 1000 to 10000 nM.
With `N#Cc1ccnc(-c2nc(N)nc3c2cnn3Cc2ccc(N)c(C(F)(F)F)c2)c1` [Compound 235, 2-[6-amino-1-[[4-amino-3-(trifluoromethyl)phenyl]methyl]pyrazolo[3,4-d]pyrimidine-4-yl]pyridine-4-carbonitrile], the Ki in data set [1] was below 20 nM; in data set [4] it was 100 to 1000 nM.

Broadly, the Ki is the dissociation constant of the complex between target and ligand, obtained from inhibition or displacement.
